Test results published in patent US6737383B1, “Herbicidal oxadiazolidines” (priority 1999, dated 2004).

Experiments:
[1] = tested on: pigweed; experiment: Test B pre/postemergence pigweed; format: in vivo, Amaranthus retroflexus
Method in brief: (§1)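 Test chemicals in a non-phytotoxic solvent mixture with surfactant were sprayed preemergence onto planted seeds and postemergence onto plants 2 to 18 cm tall (1- to 4-leaf stage). After twelve to sixteen days in a greenhouse, injury was visually rated against untreated controls from 0 (no effect) to 10 (complete control).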

[2] = tested on: velvetleaf; experiment: Test B pre/postemergence velvetleaf; format: in vivo, Abutilon theophrasti
Method in brief: as §1

[3] = tested on: corn; experiment: Test B pre/postemergence corn; format: in vivo, Zea mays
Method in brief: as §1

[4] = tested on: purple nutsedge; experiment: Test B pre/postemergence purple nutsedge; format: in vivo, Cyperus rotundus
Method in brief: as §1

[5] = tested on: blackgrass; experiment: Test B pre/postemergence blackgrass; format: in vivo, Alopecurus myosuroides
Method in brief: as §1

[6] = tested on: rice; experiment: Test B flood test rice; format: in vivo, Oryza sativa
Method in brief: (§2)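 Flood test on plants grown to the 2-leaf stage; treated plants kept in greenhouse twelve to sixteen days, then visually rated against controls on a 0 (no effect) to 10 (complete control) scale.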

[7] = tested on: rape; experiment: Test B pre/postemergence rape; format: in vivo, Brassica napus
Method in brief: as §1

[8] = tested on: wild oat; experiment: Test B pre/postemergence wild oat; format: in vivo, Avena fatua
Method in brief: as §1

[9] = tested on: sugar beet; experiment: Test B pre/postemergence sugar beet; format: in vivo, Beta vulgaris
Method in brief: as §1

[10] = tested on: crabgrass; experiment: Test B pre/postemergence crabgrass; format: in vivo, Digitaria sanguinalis
Method in brief: as §1

[11] = tested on: morningglory; experiment: Test B pre/postemergence morningglory; format: in vivo, Ipomoea hederacea
Method in brief: as §1

[12] = tested on: surinam grass; experiment: Test B pre/postemergence surinam grass; format: in vivo, Brachiaria decumbens
Method in brief: as §1

[13] = tested on: bamyardgrass; experiment: Test B flood test barnyardgrass; format: in vivo, Echinochloa crus-galli
Method in brief: as §2

[14] = tested on: smallflower flatsedge; experiment: Test B flood test smallflower flatsedge; format: in vivo, Cyperus difformis
Method in brief: as §2

[15] = tested on: duck salad; experiment: Test B flood test duck salad; format: in vivo, Heteranthera limosa
Method in brief: as §2

[16] = tested on: giant foxtail; experiment: Test B pre/postemergence giant foxtail; format: in vivo, Setaria faberii
Method in brief: as §1

[17] = tested on: wheat; experiment: Test B pre/postemergence wheat; format: in vivo, Triticum aestivum
Method in brief: as §1

[18] = tested on: bedstraw; experiment: Test B pre/postemergence bedstraw; format: in vivo, Galium aparine; settings: Preemergence
Method in brief: as §1

[19] = tested on: cocklebur; experiment: Test B pre/postemergence cocklebur; format: in vivo, Xanthium strumarium
Method in brief: as §1

[20] = tested on: soybean; experiment: Test B pre/postemergence soybean; format: in vivo, Glycine max
Method in brief: as §1

[21] = Postemergence, Rate 62 g/ha, scale 0 to 10, 0 is no effect, 10 is complete control
[22] = Postemergence, Rate 125 g/ha, scale of 0 to 10 where 0 is no effect and 10 is complete control
[23] = Preemergence, Rate 62 g/ha, scale of 0 to 10 where 0 is no effect and 10 is complete control
[24] = Preemergence, Rate 125 g/ha, scale of 0 to 10 where 0 is no effect and 10 is complete control
[25] = Preemergence, Rate 250 g/ha, scale 0 to 10 (0 no effect, 10 complete control)
[26] = Preemergence, Rate 500 g/ha, scale of 0 to 10 where 0 is no effect and 10 is complete control
[27] = Rate 500 g/ha, Postemergence, scale 0 to 10, 0 is no effect, 10 is complete control
[28] = Postemergence, Rate 250 g/ha, scale of 0 to 10, 0 is no effect, 10 is complete control
[29] = Rate 62 g/ha, flood test species, Pre-emergence, visual evaluation after twelve to sixteen days
[30] = Rate 125 g/ha, under heading Pre-emergence, flood test species, visual evaluation after twelve to sixteen days
[31] = Rate 250 g/ha, Pre-emergence (flood test species), scale 0 to 10, 0 is no effect, 10 is complete control
[32] = Rate 500 g/ha, Pre-emergence section of Table B, 0 to 10 scale (0 no effect, 10 complete control)

C#CC=CC(C)(C)n1c(=O)on(C(=O)N(c2ccccc2)C(C)C)c1=O [Compound 655]
2: Redroot pigweed plant response rating [1, 22] | Redroot pigweed plant response rating [1, 24] | Plant response rating, Redroot pigweed [1, 25] | Plant response rating, Blackgrass [5, 25] | Rape plant response rating [7, 22] | Sugarbeets plant response rating [9, 27] | B. signalgrass plant response rating [12, 28] | B. signalgrass plant response rating [12, 27] | Plant response rating, Soybean [20, 21] | Soybean plant response rating [20, 22]
9: Plant response rating, Crabgrass [10, 26] | Crabgrass plant response rating [10, 27] | Plant response rating, Morningglory [11, 21] | Morningglory plant response rating [11, 28] | Giant foxtail plant response rating [16, 24] | Plant response rating, Giant foxtail [16, 25] | Plant response rating, Giant foxtail [16, 26] | Giant foxtail plant response rating [16, 27]
7: Redroot pigweed plant response rating [1, 27] | Giant foxtail plant response rating [16, 22]
8: Crabgrass plant response rating [10, 22] | Crabgrass plant response rating [10, 28] | Crabgrass plant response rating [10, 24] | Plant response rating, Crabgrass [10, 25]
3: Plant response rating, Blackgrass [5, 26] | Blackgrass plant response rating [5, 27] | Rape plant response rating [7, 27] | Giant foxtail plant response rating [16, 23]
4: Plant response rating, Redroot pigweed [1, 26] | Soybean plant response rating [20, 27]
0: Redroot pigweed plant response rating [1, 23] | Plant response rating, Velvetleaf [2, 21] | Velvetleaf plant response rating [2, 22] | Velvetleaf plant response rating [2, 23] | Velvetleaf plant response rating [2, 24] | Plant response rating, Velvetleaf [2, 25] | Plant response rating, Velvetleaf [2, 26] | Velvetleaf plant response rating [2, 27] | Plant response rating, Corn [3, 21] | Corn plant response rating [3, 22] | Corn plant response rating [3, 28] | Corn plant response rating [3, 23] | Corn plant response rating [3, 24] | Plant response rating, Corn [3, 25] | Plant response rating, Corn [3, 26] | Corn plant response rating [3, 27] | Plant response rating, Nutsedge [4, 21] | Nutsedge plant response rating [4, 22] | Nutsedge plant response rating [4, 23] | Nutsedge plant response rating [4, 24] | Plant response rating, Nutsedge [4, 25] | Plant response rating, Nutsedge [4, 26] | Plant response rating, Blackgrass [5, 21] | Blackgrass plant response rating [5, 22] | Blackgrass plant response rating [5, 28] | Blackgrass plant response rating [5, 23] | Blackgrass plant response rating [5, 24] | Plant response rating, Rice (0 to 10 scale, 0 is no effect, 10 is complete control) [6, 29] | Rice plant response rating (0 to 10 scale, 0 is no effect, 10 is complete control) [6, 30] | Rice plant response rating [6, 31] | Rice plant response rating [6, 32] | Plant response rating, Rape [7, 21] | Rape plant response rating [7, 23] | Rape plant response rating [7, 24] | Plant response rating, Rape [7, 25] | Plant response rating, Rape [7, 26] | Plant response rating, Wild oats [8, 21] | Wild oats plant response rating [8, 22] | Wild oats plant response rating [8, 23] | Wild oats plant response rating [8, 24] | Plant response rating, Wild oats [8, 25] | Plant response rating, Wild oats [8, 26] | Plant response rating, Sugarbeets [9, 21] | Sugarbeets plant response rating [9, 22] | Sugarbeets plant response rating [9, 23] | Sugarbeets plant response rating [9, 24] | Plant response rating, Sugarbeets [9, 25] | Plant response rating, Sugarbeets [9, 26] | Morningglory plant response rating [11, 23] | Morningglory plant response rating [11, 24] | Plant response rating, Morningglory [11, 25] | Plant response rating, Morningglory [11, 26] | Plant response rating, B. signalgrass [12, 21] | Plant response rating, B. signalgrass [12, 22] | B. signalgrass plant response rating [12, 23] | B. signalgrass plant response rating [12, 24] | Plant response rating, B. signalgrass [12, 25] | Plant response rating, B. signalgrass [12, 26] | Plant response rating, Barnyardgrass (0 to 10 scale, 0 is no effect, 10 is complete control) [13, 29] | Barnyardgrass plant response rating (0 to 10 scale, 0 is no effect, 10 is complete control) [13, 30] | Barnyardgrass plant response rating [13, 31] | Barnyardgrass plant response rating [13, 32] | Plant response rating, S. Flatsedge (0 to 10 scale, 0 is no effect, 10 is complete control) [14, 29] | S. Flatsedge plant response rating (0 to 10 scale, 0 is no effect, 10 is complete control) [14, 30] | S. Flatsedge plant response rating [14, 31] | S. Flatsedge plant response rating [14, 32] | Plant response rating, Ducksalad (0 to 10 scale, 0 is no effect, 10 is complete control) [15, 29] | Ducksalad plant response rating (0 to 10 scale, 0 is no effect, 10 is complete control) [15, 30] | Ducksalad plant response rating [15, 31] | Ducksalad plant response rating [15, 32] | Plant response rating, Wheat [17, 21] | Wheat plant response rating [17, 22] | Wheat plant response rating [17, 23] | Wheat plant response rating [17, 24] | Plant response rating, Wheat [17, 25] | Plant response rating, Wheat [17, 26] | Wheat plant response rating [17, 27] | Bedstraw plant response rating ([18]; Rate 62 g/ha, scale of 0 to 10 where 0 is no effect and 10 is complete control) | Bedstraw plant response rating ([18]; Rate 125 g/ha, scale of 0 to 10 where 0 is no effect and 10 is complete control) | Plant response rating, Bedstraw ([18]; Rate 250 g/ha, scale 0 to 10 (0 no effect, 10 complete control)) | Plant response rating, Bedstraw ([18]; Rate 500 g/ha, scale of 0 to 10 where 0 is no effect and 10 is complete control) | Plant response rating, Cocklebur [19, 21] | Cocklebur plant response rating [19, 22] | Cocklebur plant response rating [19, 28] | Cocklebur plant response rating [19, 23] | Cocklebur plant response rating [19, 24] | Plant response rating, Cocklebur [19, 25] | Plant response rating, Cocklebur [19, 26] | Cocklebur plant response rating [19, 27] | Soybean plant response rating [20, 23] | Soybean plant response rating [20, 24] | Plant response rating, Soybean [20, 25] | Plant response rating, Soybean [20, 26]
1: Plant response rating, Redroot pigweed [1, 21] | Wild oats plant response rating [8, 27] | Plant response rating, Crabgrass [10, 21] | Plant response rating, Giant foxtail [16, 21]
